In patent US20250145564A1, “SULFONYLUREA COMPOUND, PREPARATION METHOD THEREFOR, AND APPLICATION THEREOF” (SHANGHAI INSTITUTE OF MATERIA MEDICA, CHINESE ACADEMY OF …, priority 2021, published 2025):

Experiments:
sEH (human recombinant) = target: T1, sEH (human recombinant) (Homo sapiens, UniProt P34913); assay: sEH inhibition assay (fluorescence);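 further: enzyme preincubated with compound 30 min at 25 °C, then substrate added and fluorescence read after 15 min at 25 °C, 320 nm and 460 nm, versus DMSO negative control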
T1 sequence (P34913 1-555): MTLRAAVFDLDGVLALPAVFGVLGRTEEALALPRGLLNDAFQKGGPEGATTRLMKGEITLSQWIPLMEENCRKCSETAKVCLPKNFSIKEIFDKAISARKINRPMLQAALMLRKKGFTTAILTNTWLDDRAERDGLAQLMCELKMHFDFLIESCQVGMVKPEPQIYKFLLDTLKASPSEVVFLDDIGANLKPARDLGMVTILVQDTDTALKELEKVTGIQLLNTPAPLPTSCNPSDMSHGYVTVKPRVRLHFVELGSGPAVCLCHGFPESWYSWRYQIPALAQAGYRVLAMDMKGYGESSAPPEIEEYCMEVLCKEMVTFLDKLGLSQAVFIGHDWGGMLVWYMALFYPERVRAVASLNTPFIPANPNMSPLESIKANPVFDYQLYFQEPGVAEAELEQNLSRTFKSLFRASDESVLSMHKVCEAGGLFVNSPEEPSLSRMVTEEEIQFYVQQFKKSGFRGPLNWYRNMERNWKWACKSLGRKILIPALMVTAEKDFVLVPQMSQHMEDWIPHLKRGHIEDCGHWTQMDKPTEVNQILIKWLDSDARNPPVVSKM
Description: sEH Assay Buffer was purchased from Cayman Chemical; sEH (human recombinant) was purchased from Cayman Chemical; sEH substrate was purchased from Cayman Chemical. The working solution of 20% DMSO for the compounds was prepared by mixing dimethyl sulfoxide with water in a volume ratio of 1:4, and shaking to mix well.
sEH Assay Buffer (10×), SEH (human recombinant) and sEH substrate were thawed on ice.
The sEH Assay Buffer (lux) was prepared into a 1×sEH Assay Buffer with deionized water. 12 μL of sEH was added with 588 µL of 1× Assay Buffer to be diluted 50 times to obtain a sEH working solution. 180 µL of 1× Assay Buffer was added into the corresponding wells; the sEH working solution was added to the corresponding wells at 5 μL/well; the working solution of 20% DMSO for the compounds was added into the corresponding wells at 5 μL/well, and blank wells and negative control wells added with an equal amount of DMSO were set. After centrifuged at 1000 rpm for 1 minute, the wells were incubated at 25° C. for 30 minutes. After incubation, the substrate was added into the 96-wells plate at 5 μL/well and the plate was centrifuged at 1000 rpm for 1 minute. After incubation at 25° C. for 15 minutes, fluorescence values were read at emission wavelengths of 320 nm and 460 nm.

[1] = test system: mice with chronic heart failure (TAC); assay: TAC mouse model, comparison of I-23 and Empagliflozin; assay type: in vivo; conditions: mice, daily gavage eight weeks; I-23 0.44 mg/kg; Empagliflozin 10 mg/kg
From the text: 12-week-old male C57BL/6 mice, which were purchased from Gempharmatech Co., Ltd, were raised in the SPF animal house of Tongji Medical College, Huazhong University of Science and Technology. After one week of acclimatization in the animal house, the mice were subjected to thoracic aortic constriction as the TAC group. Another group of mice were subjected to thoracotomy without ligation of thoracic aorta as Sham group. Meanwhile, AUDA was used as the positive control.
Cardiac ultrasound detection was performed on a Visual Sonics Vevo 2100 small animal ultrasound imager. The major measurement indicators include heart rate (HR), left ventricular ejection fraction (LVEF), left ventricular fractional shortening (LVFS), left ventricular internal dimension-diastole (LVIDd) and left ventricular internal dimension-systole (LVIDs), and left ventricular posterior wall thickness (LVPWd and LVPWs).
The detection was performed on a Millar pressure-volume system from Millar Instr Ment PowerLab. After the animals were anesthetized to an appropriate extent, a midline incision was made in the neck, the right common carotid artery was separated, ligated at the distal end and clipped at the proximal end. A V-shaped incision was made on the artery with microscissors, and a microcatheter was inserted to the left ventricle. Signals were recorded through a conduction system to obtain hemodynamic data such as heart rate (HR), left ventricular end diastolic pressure (PED), left ventricular end systolic pressure (PES), maximum rate of decrease in left ventricular pressure (−dp/dtmin), and maximum rate of increase in left ventricular pressure (+dP/dtmax).
The myocardial tissue was placed in an embedding frame, soaked and fixed in neutral formaldehyde solution, dehydrated, and embedded in paraffin. The paraffin block was then sliced into sections with a thickness of 4 μm on a microtome. The general appearance of the myocardium was observed through HE staining, and the myocardial fibrosis was observed through Sirius red staining.
Total RNA was extracted using Invitrogen's Trizol reagent, then cDNA was obtained using TAKARA's reverse transcription kit, and finally the mRNA content of related genes was amplified with specific primers.
Cardiac ultrasound examination was performed two weeks after TAC surgery. 24 TAC mice with no significant difference in cardiac function were selected and randomly divided into a model group (TAC) and a treatment group (TAC+compound). The model group received no other treatment, while the treatment group received daily gavage (0.44 mg/kg for I-23 or 10 mg/kg for Empagliflozin). Eight weeks later, i.e., at the chronic heart failure phase, the animals were sacrificed, and tissue specimens were collected to perform the above detections.
This experiment was to compare the ameliorative effects of I-23 and Empagliflozin on chronic heart failure.

| IC50 (sEH (human recombinant)) [µM] | Structure (SMILES) | further results |
| --- | --- | --- |
| 0.2 to 1 | CCC1=C(C)CN(C(=O)NCCc2ccc(S(=O)(=O)NC(=O)N[C@H]3CC[C@H](COC(=O)NC4CC4)CC3)cc2)C1=O [Compound I-12] | – |
| 1 to 10 | CCC1=C(C)CN(C(=O)NCCc2ccc(S(=O)(=O)NC(=O)NC3CCC(C(=O)OC)CC3)cc2)C1=O (stereo not drawn) [Compound I-26] | – |
| 1 to 10 | CCC1=C(C)CN(C(=O)NCCc2ccc(S(=O)(=O)NC(=O)N[C@H]3CC[C@H](OC(N)=O)CC3)cc2)C1=O [Compound I-31] | – |
| 1 to 10 | Cc1ccc(S(=O)(=O)N(C)C(=O)NC2[C@@H](O)C3(C)CC[C@@H]2C3(C)C)cc1 (stereo partly drawn) [Compound I-36] | – |
| 1 to 10 | CCC1=C(C)CN(C(=O)NCCc2ccc(S(=O)(=O)N(C(=O)N[C@H]3CC[C@H](C)CC3)C(C)C)cc2)C1=O [Compound I-38] | – |
| 1 to 10 | Cc1ccc(S(=O)(=O)N(C)C(=O)NN2CCCCCC2)cc1 [Compound I-33] | – |
| 0.2 to 1 | CC(=O)c1ccc(S(=O)(=O)N(C)C(=O)NC2CCCCC2)cc1 [Compound I-5] | – |
| 0.2 to 1 | CCC1=C(C)CN(C(=O)NCCc2ccc(S(=O)(=O)NC(=O)N[C@H]3CC[C@H](COC(=O)CN4CCCCC4)CC3)cc2)C1=O [Compound I-16] | – |
| < 0.2 | COc1ccc2c(c1)C(=O)N(CCc1ccc(S(=O)(=O)N(C)C(=O)NC3CCCCC3)cc1)C(=O)C2(C)C [Compound I-2] | – |
| 1 to 10 | CCC1=C(C)CN(C(=O)NCCc2ccc(S(=O)(=O)NC(=O)N[C@H]3CC[C@H](COC(=O)Nc4ccc(OC(F)(F)F)cc4)CC3)cc2)C1=O [Compound I-13] | – |
| 0.2 to 1 | CCNC(=O)OC[C@H]1CC[C@H](NC(=O)NS(=O)(=O)c2ccc(CCNC(=O)N3CC(C)=C(CC)C3=O)cc2)CC1 [Compound I-10] | – |
| 1 to 10 | CCC1=C(C)CN(C(=O)NCCc2ccc(S(=O)(=O)N(C(=O)N[C@H]3CC[C@H](C)CC3)C3CC3)cc2)C1=O [Compound I-8] | – |
| < 0.2 | COc1ccc(Cl)cc1C(=O)NCCc1ccc(S(=O)(=O)N(C)C(=O)NC2CCCCC2)cc1 [Compound I-3] | – |
| 10 to 100 | CCC1=C(C)CN(C(=O)NCCc2ccc(S(=O)(=O)NC(=O)N[C@H]3CC[C@H](COP(=O)(OCOC(=O)OC(C)C)OCOC(=O)OC(C)C)CC3)cc2)C1=O [Compound I-18] | – |
| 1 to 10 | CCC1=C(C)CN(C(=O)NCCc2ccc(S(=O)(=O)NC(=O)N[C@H]3CC[C@H](COC(=O)C(C)(C)C)CC3)cc2)C1=O [Compound I-43] | – |
| < 0.2 | CCNC(=O)OC[C@H]1CC[C@H](NC(=O)N(C)S(=O)(=O)c2ccc(CCNC(=O)N3CC(C)=C(CC)C3=O)cc2)CC1 [Compound I-11] | – |
| 1 to 10 | Cc1cnc(C(=O)NCCc2ccc(S(=O)(=O)N(C)C(=O)NC3CCCCC3)cc2)cn1 [Compound I-32] | – |
| 1 to 10 | C=CCN(C(=O)N[C@H]1CC[C@H](C)CC1)S(=O)(=O)c1ccc(CCNC(=O)N2CC(C)=C(CC)C2=O)cc1 [Compound I-6] | – |
| 1 to 10 | CCC1=C(C)CN(C(=O)NCCc2ccc(S(=O)(=O)N(C)C(=O)N[C@H]3CC[C@H](COC(=O)C(C)C)CC3)cc2)C1=O [Compound I-42] | – |

| IC50 (sEH (human recombinant)) [µM] | Structure (SMILES) | further results |
| --- | --- | --- |
| 1 to 10 | CCC1=C(C)CN(C(=O)NCCc2ccc(S(=O)(=O)N(C)C(=O)N[C@H]3CC[C@H](COC(C)=O)CC3)cc2)C1=O [Compound I-24] | – |
| 10 to 100 | CCC1=C(C)CN(C(=O)NCCc2ccc(S(=O)(=O)NC(=O)N[C@H]3CC[C@H](C(=O)OC(C)OC(=O)OC4CCCCC4)CC3)cc2)C1=O (stereo partly drawn) [Compound I-17] | – |
| 1 to 10 | CCC(=O)OC[C@H]1CC[C@H](NC(=O)N(C)S(=O)(=O)c2ccc(CCNC(=O)N3CC(C)=C(CC)C3=O)cc2)CC1 [Compound I-40] | – |
| 10 to 100 | CCC1=C(C)CN(C(=O)NCCc2ccc(S(=O)(=O)N(C)C(=O)N[C@H]3CC[C@H](COCP(=O)(OCOC(=O)OC(C)C)OCOC(=O)OC(C)C)CC3)cc2)C1=O [Compound I-21] | – |
| 0.2 to 1 | CCC1=C(C)CN(C(=O)NCCc2ccc(S(=O)(=O)N(C)C(=O)N[C@H]3CC[C@H](CO)CC3)cc2)C1=O [Compound I-9] | – |
| 0.2 to 1 | CCC1=C(C)CN(C(=O)NCCc2ccc(S(=O)(=O)NC(=O)N[C@H]3CC[C@H](COC)CC3)cc2)C1=O [Compound I-25] | – |
| 10 to 100 | CCC1=C(C)CN(C(=O)NCCc2ccc(S(=O)(=O)N(C)C(=O)NC3CCC(C(=O)O)CC3)cc2)C1=O (stereo not drawn) [Compound I-27] | – |
| 1 to 10 | Cc1cc(C(=O)NCCc2ccc(S(=O)(=O)N(C)C(=O)NN3CCCCCC3)cc2)no1 [Compound I-35] | – |
| 1 to 10 | CCC(=O)OC[C@H]1CC[C@H](NC(=O)NS(=O)(=O)c2ccc(CCNC(=O)N3CC(C)=C(CC)C3=O)cc2)CC1 [Compound I-39] | – |
| 1 to 10 | CCC1=C(C)CN(C(=O)NCCc2ccc(S(=O)(=O)N(C)C(=O)N[C@H]3CC[C@H](COC(=O)C(C)(C)C)CC3)cc2)C1=O [Compound I-44] | – |
| 1 to 10 | CCC1=C(C)CN(C(=O)NCCc2ccc(S(=O)(=O)N(CC)C(=O)N[C@H]3CC[C@H](C)CC3)cc2)C1=O [Compound I-37] | – |
| 10 to 100 | CCCC1=C(C)CN(C(=O)NCCc2ccc(S(=O)(=O)NC(=O)NC3CCC(C(=O)OC)CC3)cc2)C1=O (stereo not drawn) [Compound I-30] | – |
| 1 to 10 | CCC1=C(C)CN(C(=O)NCCc2ccc(S(=O)(=O)NC(=O)N[C@H]3CC[C@H](COC(=O)C(C)C)CC3)cc2)C1=O [Compound I-41] | – |
| 1 to 10 | CCC1=C(C)CN(C(=O)NCCc2ccc(S(=O)(=O)N(C)C(=O)NC3CCC(CC)CC3)cc2)C1=O (stereo not drawn) [Compound I-34] | – |
| 1 to 10 | Cc1ccc(S(=O)(=O)N(C(=O)NN2CC3CCCC3C2)C(C)C)cc1 (stereo not drawn) [Compound I-7] | – |
| – | OC[C@H]1O[C@@H](c2ccc(Cl)c(Cc3ccc(O[C@H]4CCOC4)cc3)c2)[C@H](O)[C@@H](O)[C@@H]1O [Empagliflozin, reference compound] | cardiac hypertrophy (heart photographs, heart weight/tibia length HW/TL) [1]: reversal effect; expression of BNP in mouse cardiomyocytes after TAC [1]: can inhibit this effect; impaired cardiac function (EF value, FS value, LVIDs, dp/dt) [1]: can inhibit this effect; positive area of Sirius red staining (myocardial fibrosis) [1]: can inhibit this effect |
| 1 to 10 | CCC1=C(C)CN(C(=O)NCCc2ccc(S(=O)(=O)NC(=O)NC3CCC(C(=O)NC)CC3)cc2)C1=O (stereo not drawn) [Compound I-29] | – |
| 10 to 100 | CCC1=C(C)CN(C(=O)NCCc2ccc(S(=O)(=O)NC(=O)N[C@H]3CC[C@H](COC(=O)CN(C)C)CC3)cc2)C1=O [Compound I-14] | – |

| Structure (SMILES) | IC50 (sEH (human recombinant)) [µM] | further results |
| --- | --- | --- |
| CCC1=C(C)CN(C(=O)NCCc2ccc(S(=O)(=O)N(C)C(=O)N[C@H]3CC[C@H](CO[P@](=O)(N[C@@H](C)C(=O)OC(C)C)Oc4ccccc4)CC3)cc2)C1=O [Compound I-22] | 10 to 100 | – |
| CCC1=C(C)CN(C(=O)NCCc2ccc(S(=O)(=O)NC(=O)N[C@H]3CC[C@H](CO[P@](=O)(N[C@@H](C)C(=O)OC(C)C)Oc4ccccc4)CC3)cc2)C1=O [Compound I-19] | 10 to 100 | – |
